Consider 11 compounds from PubChem BioAssay AID288 (DTP/NCI, 2004).

“And” between values parts separate entries of the source, which are not always exact repeats. Equal entries are not always repeated. Results filed as inconclusive are left out.

The test system of the assay is BDF1 mice, M5076 sarcoma s.c., survival/tumor T/C. The assay can be described thus: NCI In Vivo Anticancer Drug Screen. Data for tumor model Sarcoma M5076 (subcutaneous) in B6D2F1 (BDF1) mice. Here is the method:
The antitumor activity of compounds was measured in mice bearing transplantable tumors. Survival or tumor size were measured and the results are expressed as the measurement made in the treated group (T) divided by the measurement made in the vehicle treated control group (C). The tumor model used in this assay is Sarcoma M5076 (subcutaneous) in B6D2F1 (BDF1) mice

Where [1] appears, read: endpoint: median survival time, dose: 100.0 mg/kg/injection, schedule: Q01DX009 (ip), vehicle: saline with Tween-80, higher = longer survival.
Where [2] appears, read: endpoint: median survival time, dose: 200.0 mg/kg/injection, schedule: Q01DX009 (ip), vehicle: saline with Tween-80, higher = longer survival.
Where [3] appears, read: endpoint: mean tumor weight, dose: 75.0 mg/kg/injection, schedule: Q02DX011 (ip), vehicle: saline, higher = larger tumour.
Setting [4] is: endpoint: mean tumor weight, dose: 150.0 mg/kg/injection, schedule: Q02DX011 (ip), vehicle: saline, higher = larger tumour.
Where [5] appears, read: endpoint: median tumor weight (est.), dose: 150.0 mg/kg/injection, schedule: Q02DX011 (ip), vehicle: saline, higher = larger tumour.

In the case of `CN(N=O)C(=O)N[C@@H](C=O)[C@@H](O)[C@H](O)[C@H](O)CO`, the T/C is 64 % of control (endpoint: mean tumor weight, dose: 9.38 mg/kg/injection, schedule: Q02DX011 (ip), vehicle: other, higher = larger tumour); 37 % of control and 56 % of control (endpoint: mean tumor weight, dose: 18.75 mg/kg/injection, schedule: Q02DX011 (ip), vehicle: other, higher = larger tumour); 11 % of control and 15 % of control (endpoint: mean tumor weight, dose: 37.5 mg/kg/injection, schedule: Q02DX011 (ip), vehicle: other, higher = larger tumour); 1 % of control (endpoint: mean tumor weight, dose: 75.0 mg/kg/injection, schedule: Q02DX011 (ip), vehicle: other, higher = larger tumour); 45 % of control (endpoint: median tumor weight (est.), dose: 9.38 mg/kg/injection, schedule: Q02DX011 (ip), vehicle: other, higher = larger tumour); 39 % of control and 60 % of control (endpoint: median tumor weight (est.), dose: 18.75 mg/kg/injection, schedule: Q02DX011 (ip), vehicle: other, higher = larger tumour). Also, the T/C (endpoint: median tumor weight (est.), dose: 37.5 mg/kg/injection, schedule: Q02DX011 (ip), vehicle: other, higher = larger tumour) is 10 % of control and 34 % of control.
As to `C[c-]1[c-][c-][c-][c-]1.C[c-]1[c-][c-][c-][c-]1.[C-]#[O+].[C-]#[O+].[C-]#[O+].[C-]#[O+].[C-]#[O+].[C-]#[O+].[Mo].[Mo]`, the T/C is 111 % of control under setting [1] and 94 % of control under setting [2].
On to `O=C[C@@H](CO)O[C@H](C=O)n1cnc2c(=O)[nH]cnc21`, for which the T/C is, setting by setting: under setting [3], 93 % of control; under setting [4], 105 % of control; (endpoint: mean tumor weight, dose: 300.0 mg/kg/injection, schedule: Q02DX011 (ip), vehicle: saline, higher = larger tumour) 54 % of control; (endpoint: median tumor weight (est.), dose: 75.0 mg/kg/injection, schedule: Q02DX011 (ip), vehicle: saline, higher = larger tumour) 376 % of control; under setting [5], 385 % of control; (endpoint: median tumor weight (est.), dose: 300.0 mg/kg/injection, schedule: Q02DX011 (ip), vehicle: saline, higher = larger tumour) 266 % of control.
Turning to `O=C1N[C@H]2[C@H](O)[C@H](O)[C@@H](O)[C@H](O)[C@@H]2c2cc3c(c(O)c21)OCO3`, the T/C runs as follows: (endpoint: median survival time, dose: 0.38 mg/kg/injection, schedule: Q01DX009 (ip), vehicle: saline + alcohol, higher = longer survival) 101 % of control; (endpoint: median survival time, dose: 0.75 mg/kg/injection, schedule: Q01DX009 (ip), vehicle: saline + Tween-80 + alcohol, higher = longer survival) 106 % of control; (endpoint: median survival time, dose: 0.75 mg/kg/injection, schedule: Q01DX009 (ip), vehicle: saline + alcohol, higher = longer survival) 89 % of control; (endpoint: median survival time, dose: 1.5 mg/kg/injection, schedule: Q01DX009 (ip), vehicle: saline + Tween-80 + alcohol, higher = longer survival) 111 % of control; (endpoint: median survival time, dose: 1.5 mg/kg/injection, schedule: Q01DX009 (ip), vehicle: saline + alcohol, higher = longer survival) 94 % of control; (endpoint: median survival time, dose: 3.0 mg/kg/injection, schedule: Q01DX009 (ip), vehicle: saline + alcohol, higher = longer survival) 120 % of control. The T/C is 103 % of control (endpoint: median tumor weight (est.), dose: 0.38 mg/kg/injection, schedule: Q01DX009 (ip), vehicle: saline + alcohol, higher = larger tumour); 80 % of control (endpoint: median tumor weight (est.), dose: 0.75 mg/kg/injection, schedule: Q01DX009 (ip), vehicle: saline + Tween-80 + alcohol, higher = larger tumour); 96 % of control (endpoint: median tumor weight (est.), dose: 0.75 mg/kg/injection, schedule: Q01DX009 (ip), vehicle: saline + alcohol, higher = larger tumour); 49 % of control (endpoint: median tumor weight (est.), dose: 1.5 mg/kg/injection, schedule: Q01DX009 (ip), vehicle: saline + Tween-80 + alcohol, higher = larger tumour); 64 % of control (endpoint: median tumor weight (est.), dose: 1.5 mg/kg/injection, schedule: Q01DX009 (ip), vehicle: saline + alcohol, higher = larger tumour); 2 % of control (endpoint: median tumor weight (est.), dose: 3.0 mg/kg/injection, schedule: Q01DX009 (ip), vehicle: saline + Tween-80 + alcohol, higher = larger tumour). The T/C is, setting by setting: (endpoint: median tumor weight (est.), dose: 3.0 mg/kg/injection, schedule: Q01DX009 (ip), vehicle: saline + alcohol, higher = larger tumour) 27 % of control; (endpoint: median tumor weight (est.), dose: 6.0 mg/kg/injection, schedule: Q01DX009 (ip), vehicle: saline + alcohol, higher = larger tumour) 3 % of control.
For `O=c1[nH]c(=O)n(C2CC(O)C(CO)O2)cc1C(F)(F)F` (configuration not stated), the T/C (endpoint: mean tumor weight, dose: 37.5 mg/kg/injection, schedule: Q02DX011 (ip), vehicle: saline, higher = larger tumour) is 87 % of control; the T/C under setting [3] is 24 % of control; the T/C under setting [4] is 6 % of control; the T/C (endpoint: median tumor weight (est.), dose: 37.5 mg/kg/injection, schedule: Q02DX011 (ip), vehicle: saline, higher = larger tumour) was 70 % of control and 90 % of control; the T/C under setting [5] was 4 % of control.
As to `CC1(C)OC(C)(C)c2c1nnc(-c1ccccc1[N+](=O)[O-])[n+]2[O-]`, the T/C reads like this: (endpoint: median survival time, dose: 50.0 mg/kg/injection, schedule: Q01DX009 (ip), vehicle: saline with Tween-80, higher = longer survival) 108 % of control; under setting [1], 99 % of control; under setting [2], 103 % of control; (endpoint: median tumor weight (est.), dose: 50.0 mg/kg/injection, schedule: Q01DX009 (ip), vehicle: saline with Tween-80, higher = larger tumour) 70 % of control; (endpoint: median tumor weight (est.), dose: 100.0 mg/kg/injection, schedule: Q01DX009 (ip), vehicle: saline with Tween-80, higher = larger tumour) 110 % of control; (endpoint: median tumor weight (est.), dose: 200.0 mg/kg/injection, schedule: Q01DX009 (ip), vehicle: saline with Tween-80, higher = larger tumour) 67 % of control.
As for `COc1cc(NS(C)(=O)=O)ccc1Nc1c2ccccc2nc2ccccc12`, the T/C (endpoint: mean tumor weight, dose: 1.88 mg/kg/injection, schedule: Q02DX011 (ip), vehicle: clinical formulation, higher = larger tumour) is 68 % of control; the T/C (endpoint: mean tumor weight, dose: 3.75 mg/kg/injection, schedule: Q02DX011 (ip), vehicle: clinical formulation, higher = larger tumour) was 31 % of control; the T/C (endpoint: median tumor weight (est.), dose: 1.88 mg/kg/injection, schedule: Q02DX011 (ip), vehicle: clinical formulation, higher = larger tumour) is 79 % of control; the T/C (endpoint: median tumor weight (est.), dose: 3.75 mg/kg/injection, schedule: Q02DX011 (ip), vehicle: clinical formulation, higher = larger tumour) is 42 % of control.
For the compound `Cc1ccc(S(=O)(=O)O)cc1.Cc1ccc(S(=O)(=O)O)cc1.[NH-]C1CCCCC1[NH-].[Pt+2]`, for the setting “endpoint: median survival time, dose: 4.0 mg/kg/injection, schedule: Q02DX032 (ip), vehicle: dextrose, higher = longer survival”, the T/C was 94 % of control.
For `O=C1c2ccccc2C(=O)c2c(NCCNCCO)ccc(NCCNCCO)c21`, the T/C is 100 % of control (endpoint: median survival time, dose: 7.78 mg/kg/injection, schedule: Q04DX004 (ip), vehicle: saline, higher = longer survival); 102 % of control (endpoint: median survival time, dose: 7.78 mg/kg/injection, schedule: Q04DX004 (iv), vehicle: saline, higher = longer survival); 96 % of control (endpoint: median survival time, dose: 13.0 mg/kg/injection, schedule: Q04DX004 (ip), vehicle: saline, higher = longer survival); 88 % of control (endpoint: median survival time, dose: 13.0 mg/kg/injection, schedule: Q04DX004 (iv), vehicle: saline, higher = longer survival); 90 % of control (endpoint: median survival time, dose: 21.6 mg/kg/injection, schedule: Q04DX004 (ip), vehicle: saline, higher = longer survival); 100 % of control (endpoint: median survival time, dose: 21.6 mg/kg/injection, schedule: Q04DX004 (iv), vehicle: saline, higher = longer survival). For the same compound, the T/C (endpoint: median survival time, dose: 36.0 mg/kg/injection, schedule: Q04DX004 (ip), vehicle: saline, higher = longer survival) was 103 % of control.
For the compound `NC1=NC(O)C=C1` (configuration not stated), the T/C by setting is: (endpoint: median survival time, dose: 5.0 mg/kg/injection, schedule: Q01DX009 (ip), vehicle: saline, higher = longer survival) 103 % of control; (endpoint: median survival time, dose: 10.0 mg/kg/injection, schedule: Q01DX009 (ip), vehicle: saline, higher = longer survival) 96 % of control; (endpoint: median survival time, dose: 20.0 mg/kg/injection, schedule: Q01DX009 (ip), vehicle: saline, higher = longer survival) 94 % of control; (endpoint: median survival time, dose: 40.0 mg/kg/injection, schedule: Q01DX009 (ip), vehicle: saline, higher = longer survival) 96 % of control; (endpoint: median survival time, dose: 80.0 mg/kg/injection, schedule: Q01DX009 (ip), vehicle: saline, higher = longer survival) 103 % of control; (endpoint: median tumor weight (est.), dose: 5.0 mg/kg/injection, schedule: Q01DX009 (ip), vehicle: saline, higher = larger tumour) 115 % of control. In addition, the T/C runs as follows: (endpoint: median tumor weight (est.), dose: 10.0 mg/kg/injection, schedule: Q01DX009 (ip), vehicle: saline, higher = larger tumour) 63 % of control; (endpoint: median tumor weight (est.), dose: 20.0 mg/kg/injection, schedule: Q01DX009 (ip), vehicle: saline, higher = larger tumour) 169 % of control; (endpoint: median tumor weight (est.), dose: 40.0 mg/kg/injection, schedule: Q01DX009 (ip), vehicle: saline, higher = larger tumour) 96 % of control; (endpoint: median tumor weight (est.), dose: 80.0 mg/kg/injection, schedule: Q01DX009 (ip), vehicle: saline, higher = larger tumour) 68 % of control.
Consider `COC(=N)CCCCC(=N)OC`, for which the T/C is 98 % of control (endpoint: median survival time, dose: 50.0 mg/kg/injection, schedule: Q01DX009 (ip), vehicle: saline, higher = longer survival); 98 % of control (endpoint: median survival time, dose: 100.0 mg/kg/injection, schedule: Q01DX009 (ip), vehicle: saline, higher = longer survival); 98 % of control (endpoint: median survival time, dose: 200.0 mg/kg/injection, schedule: Q01DX009 (ip), vehicle: saline, higher = longer survival); 87 % of control (endpoint: median tumor weight (est.), dose: 50.0 mg/kg/injection, schedule: Q01DX009 (ip), vehicle: saline, higher = larger tumour); 86 % of control (endpoint: median tumor weight (est.), dose: 100.0 mg/kg/injection, schedule: Q01DX009 (ip), vehicle: saline, higher = larger tumour).
